Reference: patent publication US20230348564A1, “ANTI-CANCER PROTEINS” (UNICHEM LABORATORIES LTD, priority 2020, published 2023)
Like-named read-outs stand apart in the source and are kept apart here.

Tests used:
[1] = tested on: HT-29 (Colorectal cancer); test: Xenograft study; format: in vivo, mice; details: HT-29 xenograft, IP
Description: (§1) The Xenograft models used were HT-29, KB, PA-1, MCF-7, PANC-1, T24 and MDA-MB-231. The basic study design for the Xenograft study was as follows: • 1. Cell maintenance and cell suspension preparation • 2. Aseptic injection of tumor cell suspension in the donor animal • 3. Randomization of animals in respective groups • 4. IP dosing of test items in predetermined doses • 5. IP administration of standard • 6. After completion of dosing period. • 7. The Tumor volume recording weekly twice while body weight and clinical signs daily.

Astrocytoma (U87MG) = test: cytotoxicity in Brain Tumor Cell lines by MTT assay; details: 0.05 μM-50 μM, 72 h
Notch-1 = test: biomarker levels in IOMM-Lee by ELISA; format: cell-based, Human; details: 0.1 μM
Description: (§2) Effect of SEQ ID No 2 on the expression of following 7 biomarkers were estimated in Human Meningioma cell line (IOMM-Lee) using multiplex analysis: TNF-alpha, VEGF, VEGFR2, HGF, HGFR/c-MET, PDGF-BB, and Contactin-1. Levels of another marker, Notch-1 were also estimated by ELISA in the same cell line. These 8 biomarkers play very crucial role in the pathogenesis and progression of Brain Tumor. […] Supernatants were collected and the levels of these 8 markers were investigated.

Meningioma (IOMM-Lee) = test: cytotoxicity in Brain Tumor Cell lines by MTT assay; details: 0.05 μM-50 μM, 72 h
Neuroblastoma (SH-SY5Y) = test: as above; format: cell-based, Human; details: 0.05 μM-50 μM, 72 h
Protocol: (§3) The SEQ ID NO. […] Untreated cells were used as control. […] Cells were incubated for 3 h at 37° C.

Glioblastoma (LN-18) = test: as above; format: cell-based, Human; details: 0.05 μM-50 μM, 72 h
Protocol: as §3

Glioma (C6) = test: as above; format: cell-based, Rat; details: 0.05 μM-50 μM, 72 h
Protocol: as §3

VEGFR2 = test: biomarker levels in IOMM-Lee by multiplex analysis; format: cell-based, Human
Description: as §2

VEGF = test: biomarker levels in IOMM-Lee by multiplex analysis; format: cell-based, Human; details: 0.1 μM
Description: as §2

TNF-α = test: biomarker levels in IOMM-Lee by multiplex analysis; format: cell-based, Human
Description: as §2

PDGF-BB = test: biomarker levels in IOMM-Lee by multiplex analysis; format: cell-based, Human
Description: as §2

Contactin-1 = test: biomarker levels in IOMM-Lee by multiplex analysis; format: cell-based, Human
Description: as §2

HGF = test: biomarker levels in IOMM-Lee by multiplex analysis; format: cell-based, Human
Description: as §2

HGFR/c-MET = test: biomarker levels in IOMM-Lee by multiplex analysis; format: cell-based, Human
Description: as §2

[2] = tested on: PANC-1 (Pancreas/duct epithelioid carcinoma); test: Xenograft study; format: in vivo, mice; details: PANC-1 xenograft, IP
Description: as §1

[3] = tested on: EA.hy926 (Human endothelial cells); test: Cell migration by scratch assay in endothelial cells; format: cell-based; details: Homo sapiens, read-out: Inhibition of migration with respect to untreated; for inhibition at 0.0001 µM: 0.1 nM; for inhibition at 0.001 µM: 1 nM; for inhibition at 0.0025 µM: 2.5 nM; for inhibition at 0.005 µM: 5 nM; for inhibition at 0.01 µM: 10 nM
Protocol: EA.hy296 cells were counted using hemocytometer and plated in 6-well plates at the density of 0.5×10^6 cells/well. The cells were incubated overnight under growth conditions as described above so as to allow cell recovery and exponential growth. Following overnight incubation, a small linear scratch (representative wound) was created in the confluent monolayer (middle of the well) by gently scraping with sterile 200 μl micropipette tip. Photomicrographs of the scratch were taken at 0 h (Initial time point). Cells were rinsed with serum free DMEM and grouped for treatment in two different serum conditions:
• Baseline control: Cells+DMEM • Positive/Validation control: Baseline control+Positive Control. Test: Baseline control+Test Item
• Baseline control: Cells+DMEM+1% FBS • Positive/Validation control: Baseline control+Positive Control. • Test: Baseline control+Test item
Photomicrographs of the scratch were taken at 24 h-72 h time points. The photomicrographs obtained in the above step were analyzed for quantitative assessment of area of wound closure using ImageJ tool software. Percentage migration with respect to untreated cells at different time points was calculated.

[4] = tested on: EA.hy926 (Human endothelial cells); test: endothelial cell proliferation by MTT assay; format: cell-based; details: 72 h
Protocol: The cell line used for the study was EA.hy926 (Human endothelial cells) which was procured from National Centre for Cell Science, Pune (India). The cell line was maintained in DMEM+10% FBS (heat inactivated) at 37° C. with 5% CO2, and 95% humidity. […] Untreated cells with complete medium (10% FBS) served as complete medium control, cells with sera free medium served as SFM control and the cells treated with Paclitaxel served as positive control.
The percentage cytotoxicity corresponding to each treatment was calculated.

[5] = tested on: neovascularization of Matrigel plug containing FGF-2 (bFGF); test: Matrigel plug assay (in-vivo anti-angiogenesis); set-up: species or system C57BL/6 mice; details: G3, 55 mg/Kg, qdx15
Protocol: Healthy C57BL/6 mice were selected and grouped on the basis of body weight into […] (G1-G4, n=7). Each mouse of group G2-G4 was subcutaneously injected at right flank region with 500 μl of matrigel containing 500 ng of FGF-2 (bFGF). Whereas mice of G1 group were subcutaneously injected at right flank region with 500 μl of matrigel only. In this assay, angiogenesis-inducing compounds such as bFGF was introduced into cold liquid Matrigel which, after subcutaneous injection, solidified and permits penetration by host cells and the formation of new blood vessels (neovascularization).
Required amount of test items were taken and added to an appropriate volume of Tris Buffered Saline (TBS) to achieve the required concentrations. The dose volume given to animal was 10 mL/Kg.
Daily cage-side observations were carried out to detect any clinical signs or mortality and recorded throughout the experiment period.

SMILES: O=c1[nH]cc(F)c(=O)[nH]1 [5-Fluorourasil, reference compound]
- Maximum Tumor Growth Inhibition (%) [1]: 62.94%
- Tumor Volume (mm^3) (Mean ± SEM) [1]: 1362 ± 155 mm^3

SMILES: CO[C@H]1C[C@@H]2CC[C@@H](C)[C@@](O)(O2)C(=O)C(=O)N2CCCC[C@H]2C(=O)O[C@H]([C@H](C)C[C@@H]2CC[C@@H](OCCO)[C@H](OC)C2)CC(=O)[C@H](C)/C=C(\C)[C@@H](O)[C@@H](OC)C(=O)[C@H](C)C[C@H](C)/C=C/C=C/C=C/1C [Everolimus]
- % of cytotoxicity (Astrocytoma (U87MG)): 43.6%-88.0%
- Percentage inhibition on levels of Notch-1 (Notch-1): 75.9%
- % of cytotoxicity (Meningioma (IOMM-Lee)): 44.7%-97.4%
- % of cytotoxicity (Neuroblastoma (SH-SY5Y)): 29.7%-70.1%
- % of cytotoxicity (Glioblastoma (LN-18)): 3.5%-90.7%
- % of cytotoxicity (Glioma (C6)): 50.3%-97.2%
- Percentage inhibition on levels of VEGFR2 (VEGFR2; 0.1 μM): 27.6%
- Percentage inhibition on levels of VEGFR2 (VEGFR2; 5 μM): 100%
- Percentage inhibition on levels of VEGF (VEGF): 45.8%
- Percentage inhibition on levels of TNF-α (TNF-α; 0.1 μM): 42.3%
- Percentage inhibition on levels of TNF-α (TNF-α; 5 μM): 100%
- Percentage inhibition on levels of PDGF-BB (PDGF-BB; 0.1 μM): 1.5%
- Percentage inhibition on levels of PDGF-BB (PDGF-BB; 5 μM): 67.9%
- Percentage inhibition on levels of Contactin-1 (Contactin-1; 0.1 μM): 14.9%
- Percentage inhibition on levels of Contactin-1 (Contactin-1; 5 μM): 31.3%
- Percentage inhibition on levels of HGF (HGF; 0.1 μM): 59.2%
- Percentage inhibition on levels of HGF (HGF; 5 μM): 80.8%
- Percentage inhibition on levels of HGFR/c-MET (HGFR/c-MET; 0.1 μM): 21.2%
- Percentage inhibition on levels of HGFR/c-MET (HGFR/c-MET; 5 μM): 41%

SMILES: Nc1ccn([C@@H]2O[C@H](CO)[C@@H](O)C2(F)F)c(=O)n1 [Gemcitabine, reference compound]
- Maximum Tumor Growth Inhibition (%) [2]: 61.49%
- Tumor Volume (mm^3) (Mean ± SEM) [2]: 503.93 ± 151.27 mm^3

SMILES: CC(=O)O[C@H]1C(=O)[C@@]2(C)[C@H]([C@H](OC(=O)c3ccccc3)[C@]3(O)C[C@H](OC(=O)[C@H](O)[C@@H](NC(=O)c4ccccc4)c4ccccc4)C(C)=C1C3(C)C)[C@]1(OC(C)=O)CO[C@@H]1C[C@@H]2O [Paclitaxel, reference compound]
- inhibition at 0.0001 µM ([3]; EA.hy 926, 24 h, 24 h, 1% FBS): -1.1%
- inhibition at 0.0001 µM ([3]; EA.hy 926, 24 h, 24 h, SFM): 26.5%
- inhibition at 0.001 µM ([3]; EA.hy 926, 24 h, 24 h, 1% FBS): 7.8%
- inhibition at 0.001 µM ([3]; EA.hy 926, 24 h, 24 h, SFM): 28.5%
- inhibition at 0.0025 µM ([3]; EA.hy 926, 24 h, 24 h, 1% FBS): 25.9%
- inhibition at 0.0025 µM ([3]; EA.hy 926, 24 h, 24 h, SFM): 51.4%
- inhibition at 0.005 µM ([3]; EA.hy 926, 24 h, 24 h, 1% FBS): 25%
- inhibition at 0.005 µM ([3]; EA.hy 926, 24 h, 24 h, SFM): 43.7%
- inhibition at 0.01 µM ([3]; EA.hy 926, 24 h, 24 h, 1% FBS): 44.4%
- inhibition at 0.01 µM ([3]; EA.hy 926, 24 h, 24 h, SFM): 58.9%
- inhibition at 0.0001 µM ([3]; EA.hy 926, 48 h, 48 h, 1% FBS): -0.2%
- inhibition at 0.0001 µM ([3]; EA.hy 926, 48 h, 48 h, SFM): 21.1%
- inhibition at 0.001 µM ([3]; EA.hy 926, 48 h, 48 h, 1% FBS): 2.1%
- inhibition at 0.001 µM ([3]; EA.hy 926, 48 h, 48 h, SFM): 36.8%
- inhibition at 0.0025 µM ([3]; EA.hy 926, 48 h, 48 h, 1% FBS): 18.3%
- inhibition at 0.0025 µM ([3]; EA.hy 926, 48 h, 48 h, SFM): 51.6%
- inhibition at 0.005 µM ([3]; EA.hy 926, 48 h, 48 h, 1% FBS): 10.6%
- inhibition at 0.005 µM ([3]; EA.hy 926, 48 h, 48 h, SFM): 45.2%
- inhibition at 0.01 µM ([3]; EA.hy 926, 48 h, 48 h, 1% FBS): 37.2%
- inhibition at 0.01 µM ([3]; EA.hy 926, 48 h, 48 h, SFM): 60.2%
- inhibition at 0.0001 µM ([3]; EA.hy 926, 72 h, 72 h, SFM): 7.8%
- inhibition at 0.001 µM ([3]; EA.hy 926, 72 h, 72 h, SFM): 32.7%
- inhibition at 0.0025 µM ([3]; EA.hy 926, 72 h, 72 h, SFM): 42.8%
- inhibition at 0.005 µM ([3]; EA.hy 926, 72 h, 72 h, SFM): 47.3%
- inhibition at 0.01 µM ([3]; EA.hy 926, 72 h, 72 h, SFM): 56.3%
- Mean (MTT absorbance) ([4]; 1 nM): 0.93
- Mean (MTT absorbance) ([4]; 10 nM): 0.89
- Mean (MTT absorbance) ([4]; 100 nM): 0.57
- Mean (MTT absorbance) ([4]; 1000 nM): 0.45
- inhibition at 0.001 µM ([4]; Homo sapiens, EA.hy 926, 1 nM, read-out: % inhibition of FBS stimulated cell growth): 42%
- inhibition at 0.01 µM ([4]; Homo sapiens, EA.hy 926, 10 nM, read-out: % inhibition of FBS stimulated cell growth): 44.7%
- inhibition at 0.1 µM ([4]; Homo sapiens, EA.hy 926, 100 nM, read-out: % inhibition of FBS stimulated cell growth): 64.5%
- inhibition at 1 µM ([4]; Homo sapiens, EA.hy 926, 1000 nM, read-out: % inhibition of FBS stimulated cell growth): 71.7%

SMILES: CCN(CC)CCNC(=O)c1c(C)[nH]c(/C=C2\C(=O)Nc3ccc(F)cc32)c1C [Sunitinib, reference compound]
- Hemoglobin Content in the Matrigel Plug Section, Mean ([5]; p.o.): 21.92
- reduction in hemoglobin content in homogenate of Matrigel plug compared to positive control ([5]; p.o.): 59.2%
- Histological Observation, Fat cell Infiltration, Mean [5]: 0.71
- Histological Observation, Fibroblast Infiltration, Mean [5]: 2.43
- Histological Observation, MN cell Infiltration, Mean [5]: 1.57
- Histological Observation, Neovascularization, Mean [5]: 1.14
